Legend:
[1] = In vitro stability in human plasma at 37° C. (enantiomerization, D/H exchange, degradation); format: in vitro ADME
Description: (§1) (+)- and (−)-3-(5-Amino-2-methyl-4-oxoquinazolin-3(4H)-yl)-piperidine-2,6-dione and rac-3-(5-amino-2-methyl-4-oxoquinazolin-3(4H)-yl)-(3-^2H)-piperidine-2,6-dione (87% deuterium content at the C3-position and no detectable deuterium at the C5-position, 50:50 racemic mixture of (+)- and (−)-deuterated enantiomers) were incubated in CD-1 mouse plasma (K3EDTA as anticoagulant) or human plasma (K3EDTA as anticoagulant) at 37° C. in duplicates. Aliquots were removed at t=0, 0.5, 1, 2, 6, 8, 24, 48, and 96 h.
(§2) Plasma proteins were precipitated by addition of acetonitrile containing internal standard (ISTD, tolbutamide) and the supernatants were analyzed semi-quantitatively by LC/MS-MS with elution on a chiral column (Daicel ChiralPak IE-3) for the separation of enantiomers (isocratic method of 20:80 v/v 0.1% acetic acid in water and acetonitrile). Peak areas for the deuterated enantiomers (+)- and (−)-3-(5-amino-2-methyl-4-oxoquinazolin-3(4H)-yl)-(3-^2H)-piperidine-2,6-dione were normalized to the ISTD and corrected for the isotopic peak of the corresponding protonated enantiomer, (+)- and (−)-3-(5-amino-2-methyl-4-oxoquinazolin-3(4H)-yl)-piperidine-2,6-dione respectively, if present. Corrected data were analyzed and plotted using Microsoft Excel 2013 (Microsoft Corp, Redmond, WA) and the Excel Solver.
(§3) Scheme 1 below illustrates the possible reactions in a solution of deuterated racemate. The deuterium in both enantiomers, d+ and d−, can be lost by D/H exchange to give both protonated enantiomers, h+ and h− with rate constants kD++, kD+−, kD−+, kD−−. At the same time, the protonated enantiomers h+ and h−, can exchange, with enantiomerization rate constants k+− and k−+. All four compounds can also degrade with potentially different degradation rate constants kh+d, kh−d, kd+d, kd−d.
(§4) Human and mouse plasma data were analyzed independently. Independent analyses of the data for h+ and h− were performed first and the average rate constants k+− and k−+ from these two fits were calculated and used as constants in the fitting of the stability data of the deuterated racemate. Calculated concentrations were obtained through numerical approximation of differential equations (1) and (2) for the stability studies of h+ and h− and equations (3) to (6) for the stability study of deuterated racemate (50:50 d+:d−) by the Euler method (equation (7)). The step between calculated time points was minimized in order to minimize the local error (proportional to the square of the step size) and the global error (proportional to the step size).
(§5) The average degradation rate constant obtained by fitting the data for h+ and h− was used in the fit of the stability data of the deuterated racemate. Data analysis was performed in Microsoft Excel 2013, using the Solver Generalized Reduced Gradient Nonlinear method with central derivatives to minimize the sum of sums of weighted Δ^2, square of difference between ISTD-normalized experimental data and calculated value, divided by the experimental data.
(§6) [formula] where [h+], [h−], [d+], [d−] are the concentrations of both protonated and deuterated enantiomers, k+− and k−+ are the rate constants for the enantiomerization reactions [h+] to [h−] and [h−] to [h+] respectively, kD++, kD+−, kD−+, and kD−− are the rate constants for the D/H exchange reactions [d+] or [d−] to [h+] or [h−], and kd is the rate constant for the degradation of all four compounds
(§7) [formula] where [X]ti is the concentration of either enantiomer at time ti, t1 is a time at which [X] is known, t2 is a time at which [X] is calculated, and [d[X]]t1 is the calculated value of the differential equation at time t1.

[2] = In vitro stability in CD-1 mouse plasma at 37° C. (enantiomerization, D/H exchange, degradation); format: in vitro ADME
Description: as §1, §2, §3, §4, §5, §6, §7

[3] = system: Human Multiple Myeloma H929 Cell Line; assay: Efficacy in human multiple myeloma H929 xenograft in female CB.17 SCID mice; format: in vivo; conditions: daily oral gavage 23 days, FIG. 10; for potency/efficacy at limiting tumor growth, comparison between compounds: d− and d+ 1.5 or 15 mg/kg, h-rac 3 mg/kg
Description: Female CB.17 SCID mice (8-12 weeks of age, N=60) were administered 1×10^7 H929 tumor cells in 50% Matrigel subcutaneously in their flank (0.2 mL/mouse). Animals were returned to their cages and tumor growth was monitored. Tumor size was reported as tumor volume (Vol) calculated as Vol=½ (L*W^2), where L and W are the length and width of the tumor as measured by caliper (L>W). A pair match was performed when tumors reached an average size of 100-150 mm^3 and the animals were divided into 6 treatment groups of N=10 animals each.
Animals were treated daily by oral gavage (10 mL/kg) with vehicle, d− (1.5 or 15 mg/kg), d+ (1.5 or 15 mg/kg), or h-rac (racemic mixture of protonated enantiomers h− and h+; 3 mg/kg). The compound h-rac was administered at twice the dose of the deuterated enantiomers since it contains 50% (i.e., 1.5 mg/kg) of each enantiomer. Body weight measurements were taken daily for the first week then biweekly. Tumor sizes were measured by caliper biweekly. The study was terminated after 23 days of dosing, then all animals were euthanized.

[4] = Pharmacokinetics after single oral gavage dose in female CB.17 SCID mice; format: in vivo; conditions: for AUC, compound analyzed d+ / AUC, compound analyzed d− / AUC, compound analyzed h+ / AUC, compound analyzed h−: 15 mg/kg
Description: Female CB.17 SCID mice (8-12 weeks of age) were administered a single dose of protonated racemate (h-rac, 30 mg/kg), d− (15 mg/kg), or d+ (15 mg/kg) by oral gavage. Deuterated enantiomers (i.e., d− and d+) used in this study contain ˜10% of the corresponding protonated enantiomer. Blood was collected into potassium EDTA (K2EDTA) containers by terminal cardiac puncture under carbon dioxide anesthesia from N=3 per group per time point at 0.25, 0.5, 1, 2, 4, 8, and 24 h post-dose. Plasma was isolated, frozen, and stored until ready for analysis.
Samples were prepared for quantitative analysis by liquid-liquid extraction in methyl-t-butylether (MTBE) with ondansetron as internal standard (ISTD). MTBE was evaporated under nitrogen flow and samples were reconstituted in 1% acetic acid in water/acetonitrile (20/80). Analysis was performed by chiral LC/MS-MS on a Daicel ChiralPak IE-3 column using an isocratic LC method of 0.1% acetic acid in water and acetonitrile (20:80 v/v). ISTD-normalized peak areas for deuterated enantiomers d- and d+ were corrected from interference from naturally occurring isotopes of the protonated analytes. Concentrations were obtained by interpolation on standard curves prepared in mouse plasma using standard solutions of the analytes.
Data was plotted in Excel 2013 (Microsoft Corp, Redmond, WA) and analyzed within Excel using the PKSolver add-in (version 2.0, as described in Zhang Y. et al Comput. Methods Programs Biomed. 99 (2010), 306-314) to determine pharmacokinetic parameters including exposure (as area under the curve, AUC) and elimination half-life (t1/2).

[5] = mouse plasma, single oral gavage 15 mg/kg
[6] = human plasma, 37° C., fit to equations 1 to 6
[7] = human plasma, 37° C., average of values for h− and h+
[8] = mouse plasma, 37° C., fit to equations 1 to 6
[9] = mouse plasma, 37° C., average of values for h− and h+

Cc1nc2cccc(N)c2c(=O)n1C1CCC(=O)NC1=O (single isomer, unassigned; (+)) [h+, (+)-3-(5-amino-2-methyl-4-oxoquinazolin-3(4H)-yl)-piperidine-2,6-dione, reference compound]
k +− (enantiomerization rate constant h+ to h−) ([1]; human): 0.297 h⁻¹ | k d (degradation rate constant) ([1]; human): 2.68e-05 s⁻¹ | k −+ (enantiomerization rate constant h− to h+) ([1]; human): 0.220 h⁻¹ | Calculated half-life t1/2, degradation d ([1]; human, plasma): 7.2 h | Calculated half-life t1/2, enantiomerization +− ([1]; human, plasma): 2.3 h | half-life ([1]; human, plasma, Calculated half-life t1/2, enantiomerization −+): 3.2 h | k +− (enantiomerization rate constant h+ to h−) ([2]; CD-1, mouse): 0.0603 h⁻¹ | k d (degradation rate constant) ([2]; CD-1, mouse): 1.45e-05 s⁻¹ | k −+ (enantiomerization rate constant h− to h+) ([2]; CD-1, mouse): 0.119 h⁻¹ | Calculated half-life t1/2, degradation d ([2]; CD-1, mouse, plasma): 13.3 h | Calculated half-life t1/2, enantiomerization +− ([2]; CD-1, mouse, plasma): 11.5 h | Calculated half-life t1/2, enantiomerization −+ ([2]; CD-1, mouse, plasma): 5.8 h

[2H]C1(n2c(C)nc3cccc(N)c3c2=O)CCC(=O)NC1=O (single isomer, unassigned; (-)) [d−, (−)-3-(5-Amino-2-methyl-4-oxoquinazolin-3(4H)-yl)-(3-^2H)-piperidine-2,6-dione]
potency/efficacy at limiting tumor growth, comparison between compounds [3]: more potent at limiting tumor growth at both doses than h-rac | t1/2, compound analyzed d− [4, 5]: 1.2 h | t1/2, compound analyzed h− [4, 5]: 1.2 h | AUC, compound analyzed d+ [4, 5]: 898 ng·h/mL | AUC, compound analyzed d− [4, 5]: 44100 ng·h/mL | AUC, compound analyzed h+ [4, 5]: 1180 ng·h/mL | AUC, compound analyzed h− [4, 5]: 6160 ng·h/mL

Cc1nc2cccc(N)c2c(=O)n1C1CCC(=O)NC1=O (single isomer, unassigned; (-)) [h−, (−)-3-(5-amino-2-methyl-4-oxoquinazolin-3(4H)-yl)-piperidine-2,6-dione, reference compound]
k +− (enantiomerization rate constant h+ to h−) ([1]; human): 0.231 h⁻¹ | k d (degradation rate constant) ([1]; human): 2.35e-05 s⁻¹ | k −+ (enantiomerization rate constant h− to h+) ([1]; human): 0.169 h⁻¹ | half-life ([1]; human, plasma, Calculated half-life t1/2, degradation d): 8.2 h | half-life ([1]; human, plasma, Calculated half-life t1/2, enantiomerization +−): 3 h | k +− (enantiomerization rate constant h+ to h−) ([2]; CD-1, mouse): 0.0722 h⁻¹ | k d (degradation rate constant) ([2]; CD-1, mouse): 1.51e-05 s⁻¹ | k −+ (enantiomerization rate constant h− to h+) ([2]; CD-1, mouse): 0.0730 h⁻¹ | half-life ([2]; CD-1, mouse, plasma, Calculated half-life t1/2, degradation d): 12.7 h | half-life ([2]; CD-1, mouse, plasma, Calculated half-life t1/2, enantiomerization +−): 9.6 h | half-life ([2]; CD-1, mouse, plasma, Calculated half-life t1/2, enantiomerization −+): 9.5 h | share of the total exposure ([4]; mice, exposure to the enantiomers of the protonated molecule (h-rac dosed)): 39%

3-(5-amino-2-methyl-4-oxoquinazolin-3(4H)-yl)-(3-^2H)-piperidine-2,6-dione [d-rac]
Calculated half-life t1/2, D/H exchange of d+ (D++ and D+−) ([1]; human plasma, 37° C.): 8.3 h | Calculated half-life t1/2, D/H exchange of d− (D−+ and D−−) ([1]; human plasma, 37° C.): 5.2 h | Calculated half-life t1/2, degradation d ([1]; human plasma, 37° C.): 7.8 h | Calculated half-life t1/2, enantiomerization +− ([1]; human plasma, 37° C.): 2.6 h | Calculated half-life t1/2, enantiomerization −+ ([1]; human plasma, 37° C.): 3.6 h | k D++ (rate constant D/H exchange d+ to h+) [1, 6]: 2.33e-05 s⁻¹ | k D+− (rate constant D/H exchange d+ to h−) [1, 6]: 0 s⁻¹ | k D−+ (rate constant D/H exchange d− to h+) [1, 6]: 0 s⁻¹ | k D−− (rate constant D/H exchange d− to h−) [1, 6]: 3.72e-05 s⁻¹ | k +− (enantiomerization rate constant used in analysis of d-rac) [1, 7]: 0.264 h⁻¹ | k d (degradation rate constant for the enantiomers of d-rac) [1, 7]: 2.51e-05 s⁻¹ | k −+ (enantiomerization rate constant used in analysis of d-rac) [1, 7]: 0.195 h⁻¹ | Calculated half-life t1/2, D/H exchange of d+ (D++ and D+−) ([2]; mouse plasma, 37° C.): 14.5 h | Calculated half-life t1/2, D/H exchange of d− (D−+ and D−−) ([2]; mouse plasma, 37° C.): 12.7 h | Calculated half-life t1/2, degradation d ([2]; mouse plasma, 37° C.): 13.0 h | Calculated half-life t1/2, enantiomerization +− ([2]; mouse plasma, 37° C.): 10.5 h | Calculated half-life t1/2, enantiomerization −+ ([2]; mouse plasma, 37° C.): 7.2 h | k D++ (rate constant D/H exchange d+ to h+) [2, 8]: 1.29e-05 s⁻¹ | k D+− (rate constant D/H exchange d+ to h−) [2, 8]: 3.03e-07 s⁻¹ | k D−+ (rate constant D/H exchange d− to h+) [2, 8]: 4.61e-06 s⁻¹ | k D−− (rate constant D/H exchange d− to h−) [2, 8]: 1.06e-05 s⁻¹ | k +− (enantiomerization rate constant used in analysis of d-rac) [2, 9]: 0.0662 h⁻¹ | k d (degradation rate constant for the enantiomers of d-rac) [2, 9]: 1.48e-05 s⁻¹ | k −+ (enantiomerization rate constant used in analysis of d-rac) [2, 9]: 0.0959 h⁻¹

[2H]C1(n2c(C)nc3cccc(N)c3c2=O)CCC(=O)NC1=O (single isomer, unassigned; (+)) [d+, (+)-3-(5-Amino-2-methyl-4-oxoquinazolin-3(4H)-yl)-(3-^2H)-piperidine-2,6-dione]
efficacy (tumor volume) by dose ([3]; 1.5 or 15 mg/kg): observed only at the highest dose | potency/efficacy at limiting tumor growth, comparison between compounds [3]: less efficacious than d− | t1/2, compound analyzed d+ [4, 5]: 1.1 h | t1/2, compound analyzed h+ [4, 5]: 1.0 h | AUC, compound analyzed d+ [4, 5]: 63600 ng·h/mL | AUC, compound analyzed d− [4, 5]: 661 ng·h/mL | AUC, compound analyzed h+ [4, 5]: 6120 ng·h/mL | AUC, compound analyzed h− [4, 5]: 993 ng·h/mL

Source: patent publication US11820720B2, “3-(5-substituted-4-oxoquinazolin-3(4H)-yl)-3-deuteropiperidine-2,6-dione derivatives and compositions comprising and methods of using the same” (DeuteRx, LLC, priority 2013, dated 2023)
